{"source": "BindingDB's records for doi:10.1002/cbic.201300625", "about": "(Indiana University, 2014)", "assay_in_all_cases": "IC50 Determination", "key": {"[1]": {"target": "T1, Aldehyde dehydrogenase, dimeric NADP-preferring (Homo sapiens, UniProt P30838)", "T1 sequence (P30838 whole entry)": "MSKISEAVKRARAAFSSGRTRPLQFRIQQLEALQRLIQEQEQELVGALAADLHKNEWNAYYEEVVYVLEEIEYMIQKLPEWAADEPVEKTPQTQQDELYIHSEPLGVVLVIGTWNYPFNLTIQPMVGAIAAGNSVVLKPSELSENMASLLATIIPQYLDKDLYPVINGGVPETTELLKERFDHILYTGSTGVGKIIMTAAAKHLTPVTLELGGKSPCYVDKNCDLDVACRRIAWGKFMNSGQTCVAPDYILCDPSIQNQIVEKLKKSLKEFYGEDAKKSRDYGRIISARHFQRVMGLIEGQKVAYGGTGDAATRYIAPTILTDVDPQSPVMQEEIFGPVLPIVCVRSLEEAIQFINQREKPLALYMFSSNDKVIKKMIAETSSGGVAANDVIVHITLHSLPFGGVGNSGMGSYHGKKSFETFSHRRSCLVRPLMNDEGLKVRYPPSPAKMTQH", "procedure": "(§1) To determine the IC50 values for CB29 and its analogues, propionaldehyde was used as the substrate for ALDH1A1 and ALDH2 and benzaldehyde was used as the substrate for ALDH3A1. The assays were performed at various concentrations of inhibitors, ranging from 50 nM to 250 uM, following 1 min preincubation. All reactions were initiated by the addition of the aldehyde substrate."}, "[2]": {"target": "T2, Aldehyde dehydrogenase 1A1 (Homo sapiens, UniProt P00352)", "T2 sequence (P00352 whole entry)": "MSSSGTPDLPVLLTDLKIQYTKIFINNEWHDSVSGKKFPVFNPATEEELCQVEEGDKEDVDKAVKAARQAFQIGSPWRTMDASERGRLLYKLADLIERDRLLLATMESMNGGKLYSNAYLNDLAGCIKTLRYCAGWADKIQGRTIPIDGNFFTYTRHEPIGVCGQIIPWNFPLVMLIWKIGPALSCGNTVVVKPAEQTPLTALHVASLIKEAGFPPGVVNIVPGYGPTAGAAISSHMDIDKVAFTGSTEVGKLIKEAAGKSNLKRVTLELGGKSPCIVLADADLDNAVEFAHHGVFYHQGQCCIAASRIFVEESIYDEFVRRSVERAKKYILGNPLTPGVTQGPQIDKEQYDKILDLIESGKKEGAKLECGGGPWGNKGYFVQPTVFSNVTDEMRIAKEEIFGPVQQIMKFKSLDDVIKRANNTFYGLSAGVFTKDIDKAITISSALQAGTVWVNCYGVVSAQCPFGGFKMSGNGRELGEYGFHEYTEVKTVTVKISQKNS", "procedure": "as §1"}, "[3]": {"target": "T1, Aldehyde dehydrogenase, dimeric NADP-preferring", "remark": "listed apart in the source"}}, "data": [{"molecule": "CN(C)c1ccc(Nc2ccc(S(=O)(=O)C(F)(F)F)cc2[N+](=O)[O-])cc1", "note": "[CB29 (derivative 5)]", "values": [{"measurement": "IC50", "setting": "[1]", "result": 17, "unit": "µM"}]}, {"molecule": "CS(=O)(=O)c1ccc(Nc2ccc(NCC3CCCC3)cc2)c(S(C)(=O)=O)c1", "note": "[CB29 (derivative 6)]", "values": [{"measurement": "IC50", "setting": "[2]", "result": 32, "unit": "µM"}, {"measurement": "IC50", "setting": "[1]", "result": 40, "unit": "µM"}]}, {"molecule": "CC(C)NS(=O)(=O)c1ccc(Nc2cccc(NC3CC3)c2)c([N+](=O)[O-])c1", "note": "[CB29 (derivative 9)]", "values": [{"measurement": "IC50", "setting": "[1]", "result": 26.3, "unit": "µM"}]}, {"molecule": "CC(C)C(=O)Nc1ccc(Nc2ccc(S(C)(=O)=O)cc2[N+](=O)[O-])cc1", "note": "[CB29 (derivative 12)]", "values": [{"measurement": "IC50", "setting": "[2]", "result": 16.8, "unit": "µM"}, {"measurement": "IC50", "setting": "[1]", "result": 19.6, "unit": "µM"}]}, {"molecule": "CNS(=O)(=O)c1ccc(Nc2ccc(NC(=O)CC(C)C)cc2)c([N+](=O)[O-])c1", "note": "[CB29 (derivative 13)]", "values": [{"measurement": "IC50", "setting": "[2]", "result": 11.6, "unit": "µM"}, {"measurement": "IC50", "setting": "[1]", "result": 42.3, "unit": "µM"}]}, {"molecule": "CCN(CC)S(=O)(=O)c1ccc(Nc2ccc(NC(=O)C(C)C)cc2)c([N+](=O)[O-])c1", "note": "[CB29 (derivative 14)]", "values": [{"measurement": "IC50", "setting": "[2]", "result": 8.3, "unit": "µM"}, {"measurement": "IC50", "setting": "[1]", "result": 100, "unit": "µM"}]}, {"molecule": "CC(Nc1ccc(S(C)(=O)=O)cc1[N+](=O)[O-])C(=O)O", "note": "(configuration not stated) [CB29 (derivative 16)]", "values": [{"measurement": "IC50", "setting": "[2]", "result": 50, "unit": "µM"}]}, {"molecule": "CS(=O)(=O)c1ccc(Nc2ccc3c(c2)CCC3)c([N+](=O)[O-])c1", "note": "[CB29 (derivative 17)]", "values": [{"measurement": "IC50", "setting": "[1]", "result": 26.9, "unit": "µM"}]}, {"molecule": "CC(C)NS(=O)(=O)c1ccc(Nc2ccc3c(c2)CCC3)c([N+](=O)[O-])c1", "note": "[CB29 (derivative 18)]", "values": [{"measurement": "IC50", "setting": "[1]", "result": 30.5, "unit": "µM"}]}, {"molecule": "CC(C)NS(=O)(=O)c1ccc(NC2CCN(CC(=O)Nc3ccccc3)CC2)c([N+](=O)[O-])c1", "note": "[CB29 (derivative 19)]", "values": [{"measurement": "IC50", "setting": "[1]", "result": 25.6, "unit": "µM"}]}, {"molecule": "CC(=O)Nc1ccc(Oc2ccc(S(=O)(=O)C(F)(F)F)cc2[N+](=O)[O-])cc1", "note": "[CB29 (derivative 20)]", "values": [{"measurement": "IC50", "setting": "[1]", "result": 100, "unit": "µM"}]}, {"molecule": "CC(=O)Nc1ccc(Nc2ccc(S(C)(=O)=O)cc2[N+](=O)[O-])cc1", "note": "[CB29]", "values": [{"measurement": "IC50", "setting": "[1]", "result": 16, "unit": "µM"}, {"measurement": "Ki", "setting": "[3]", "result": 4.7, "unit": "µM"}]}]}
